Tested on: 997726-040-R-J2-PDC tumor spheroids, viability
Assay: Anticancer human tumor 997726-040-R-J2-PDC patient-derived squamous cell lung carcinoma cell line growth inhibition [PI3K]
Settings: spheroids with HUVEC and MSC; for IC50: curve of first compound; for viability, T/C: stronger effect = lower value
From the text: Combinatorial screen of targeted agents with the PI3K inhibitors inavolisib, alpelisib, duvelisib, and copanlisib in multi-cell type tumor spheroids
A high-throughput screen of multi-cell type tumor spheroids was designed to identify active combinations of targeted small molecules and PI3K pathway inhibitors. Complex spheroids include a stromal component modeled by human endothelial cells (HUVEC) and fibroblasts modeled by human mesenchymal stem cells (MSCs). The concentration ranges selected for each drug and investigational agent were based upon clinically achievable concentrations if the clinical Cmax of the agent was known.
Compounds. The drugs and investigational agents: inavolisib (NSC800729), alpelisib (NSC765974), duvelisib (NSC772469), copanlisib (NSC816437), ipatasertib (NSC767898), afuresertib (NSC778305), talazoparib (NSC767125), sapanisertib (NSC764658), selumetinib (NSC741078), tovorafenib (DAY101, NSC766906), vemurafenib (NSC761431), ravoxertinib (NSC781343), sotorasib (NSC818433), MRTX1133 (NSC 836407), abemaciclib (NSC 768073), palbociclib (NSC758247), venetoclax (NSC 766270), SY5609 (NSC837396), enzalutamide (NSC755605), and darolutamide (NSC825331), were obtained from the National Cancer Institute (NCI) Developmental Therapeutics Program Chemical Repository. The FDA-approved anticancer drug set is available from the NCI Developmental Therapeutics Program. […] The stock solutions were prepared in dimethyl sulfoxide (DMSO, Sigma-Aldrich, St. Louis, MO, cat. D2650) at 800-fold the tested concentration and stored at -70 degrees C prior to their use. All drugs and investigational agents were tested over a range starting from a high concentration at or near the clinical Cmax and decreasing in half-log increments. If the clinical Cmax for an agent had not been determined, the highest concentration tested was 10 microM.
Cell Culture. All cells were maintained in an incubator at 37 degrees C and 5% CO2 with 95% humidity. The PDC lines were cultured according to standard operating procedures established by the NCI PDMR (https://pdmr.cancer.gov/sops/default.htm). All PDCs were thawed and cultured in Matrigel-coated flasks prepared with a working solution of 1X Ham's F-12 nutrient mix, without supplementation (Invitrogen, Waltham, MA, cat. 11765054), 100 U/mL penicillin-streptomycin (Invitrogen, cat. 15140122), and 2.5% Matrigel (Corning Inc., Corning, NY, cat. 354248) for the first three passages. The 354836-022-R-J1-PDC, 475296-252-R-J1-PDC, and 997726-040-R-J2-PDC lines were cultured in 6A media, which includes advanced DMEM/F-12 (Thermo Fisher Scientific, cat. 12634028), 10 mM HEPES (Thermo Fisher Scientific, cat. 15630080), 1X GlutaMAX supplement (Thermo Fisher Scientific, cat. 35050061), 0.1 mg/mL primocin (InvivoGen, San Diego, CA, cat. ant-pm-2), 10% defined fetal bovine serum, heat inactivated (HyClone Laboratories Inc., Logan, UT, cat. SH30070.03HI), 50% L-WRN conditioned media (ATCC, cat. CRL-3276), 1.25 mM N-Acetyl-L-cysteine (Sigma-Aldrich, cat. A9165), 10 mM nicotinamide (Sigma-Aldrich, cat. N0636), 1X B-27 supplement (Thermo Fisher Scientific, cat. 17504044), 1X N-2 supplement (Thermo Fisher Scientific, cat. 17502048), and 10 microM Y-27632 dihydrochloride (Tocris Bioscience, Bristol, United Kingdom, cat. 1254). The 624824-186-R-J2-PDC line was cultured in 6C/Colon 1B media, which includes all 6A media components plus 50 ng/mL human EGF recombinant protein (Thermo Fisher Scientific, cat. PHG0311). […]
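Note: spheroids exposed to compounds for seven days before readout.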

Compound `Cn1cnc2c(F)c(Nc3ccc(Br)cc3Cl)c(C(=O)NOCCO)cc21` + CC(Nc1ccc2c(c1)OCCn1cc(N3C(=O)OCC3C(F)F)nc1-2)C(N)=O has an IC50 (second compound 0.00316 µM) of 154 nM, an IC50 (second compound 0.01 µM) of 82.4 nM and an IC50 (second compound 0.0316 µM) of 13.8 nM. The IC50 (second compound 0.1 µM) was under 9.49 nM, the IC50 (second compound 0.316 µM) was under 9.49 nM and the IC50 (second compound 1 µM) was under 9.49 nM. For the same compound, the viability, T/C (second compound 0.00316 µM, first compound 0.00949 µM) was 70.5%, the viability, T/C (second compound 0.00316 µM, first compound 0.03 µM) was 65% and the viability, T/C (second compound 0.00316 µM, first compound 0.0949 µM) was 58.1%. It also gave a viability, T/C (second compound 0.00316 µM, first compound 0.3 µM) of 39.1%, a viability, T/C (second compound 0.00316 µM, first compound 0.949 µM) of 35.8% and a viability, T/C (second compound 0.00316 µM, first compound 3 µM) of 29.1%. The viability, T/C (second compound 0.01 µM, first compound 0.00949 µM) was 62%, the viability, T/C (second compound 0.01 µM, first compound 0.03 µM) was 59% and the viability, T/C (second compound 0.01 µM, first compound 0.0949 µM) was 47.6%. It also gave a viability, T/C (second compound 0.01 µM, first compound 0.3 µM) of 40.8%, a viability, T/C (second compound 0.01 µM, first compound 0.949 µM) of 39.2% and a viability, T/C (second compound 0.01 µM, first compound 3 µM) of 30.9%. It also gave a viability, T/C (second compound 0.0316 µM, first compound 0.00949 µM) of 49.1%, a viability, T/C (second compound 0.0316 µM, first compound 0.03 µM) of 50.8% and a viability, T/C (second compound 0.0316 µM, first compound 0.0949 µM) of 42.2%. For the same compound, the viability, T/C (second compound 0.0316 µM, first compound 0.3 µM) was 30.2%, the viability, T/C (second compound 0.0316 µM, first compound 0.949 µM) was 28.2% and the viability, T/C (second compound 0.0316 µM, first compound 3 µM) was 21.1%. For the same compound, the viability, T/C (second compound 0.1 µM, first compound 0.00949 µM) was 36.6%, the viability, T/C (second compound 0.1 µM, first compound 0.03 µM) was 42% and the viability, T/C (second compound 0.1 µM, first compound 0.0949 µM) was 33%. It also gave a viability, T/C (second compound 0.1 µM, first compound 0.3 µM) of 22.1%, a viability, T/C (second compound 0.1 µM, first compound 0.949 µM) of 21% and a viability, T/C (second compound 0.1 µM, first compound 3 µM) of 14%. For the same compound, the viability, T/C (second compound 0.316 µM, first compound 0.00949 µM) was 32.1%, the viability, T/C (second compound 0.316 µM, first compound 0.03 µM) was 27.9% and the viability, T/C (second compound 0.316 µM, first compound 0.0949 µM) was 23.7%. For the same compound, the viability, T/C (second compound 0.316 µM, first compound 0.3 µM) was 20.5%, the viability, T/C (second compound 0.316 µM, first compound 0.949 µM) was 14% and the viability, T/C (second compound 0.316 µM, first compound 3 µM) was 15%. The viability, T/C (second compound 1 µM, first compound 0.00949 µM) was 24.5%, the viability, T/C (second compound 1 µM, first compound 0.03 µM) was 22.4% and the viability, T/C (second compound 1 µM, first compound 0.0949 µM) was 21.7%. It also gave a viability, T/C (second compound 1 µM, first compound 0.3 µM) of 20.3%, a viability, T/C (second compound 1 µM, first compound 0.949 µM) of 15% and a viability, T/C (second compound 1 µM, first compound 3 µM) of 12.9%.
